Assay results published in patent publication US7074789B2, “Kinase inhibitors” (Amgen Inc., priority 1999, dated 2006).

Assays:
Type in all cases: biochemical
IGFR-1 = target: T1, IGFR-1 (Homo sapiens, UniProt P08069); assay: Kinase inhibition assay (33P transfer), IGFR-1; conditions: Table 2, kinase inhibition class
T1 construct: Kinases are expressed as either kinase domains or full length constructs; made in house

Lck = target: T2, Lck (Homo sapiens, UniProt P06239); assay: Kinase inhibition assay (33P transfer), Lck; conditions: Table 3; read-out: Lck-1
T2 construct: Kinases are expressed as either kinase domains or full length constructs; made in house
Procedure, shortened: (§1)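 Enzyme activity is taken as the amount of 33PO4 moved from ATP onto poly(Glu, Tyr) 4:1 or poly(Arg, Ser) 3:1 fixed to the plate surface. Unbound label is removed with 0.5% phosphoric acid before scintillation counting.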

Zap-70 = target: T3, Zap-70 (Homo sapiens, UniProt P43403); assay: Kinase inhibition assay (33P transfer), Zap-70; conditions: Table 3; read-out: Zap-1
T3 construct: Kinases are expressed as either kinase domains or full length constructs; made in house
T3 sequence (P43403 1-619): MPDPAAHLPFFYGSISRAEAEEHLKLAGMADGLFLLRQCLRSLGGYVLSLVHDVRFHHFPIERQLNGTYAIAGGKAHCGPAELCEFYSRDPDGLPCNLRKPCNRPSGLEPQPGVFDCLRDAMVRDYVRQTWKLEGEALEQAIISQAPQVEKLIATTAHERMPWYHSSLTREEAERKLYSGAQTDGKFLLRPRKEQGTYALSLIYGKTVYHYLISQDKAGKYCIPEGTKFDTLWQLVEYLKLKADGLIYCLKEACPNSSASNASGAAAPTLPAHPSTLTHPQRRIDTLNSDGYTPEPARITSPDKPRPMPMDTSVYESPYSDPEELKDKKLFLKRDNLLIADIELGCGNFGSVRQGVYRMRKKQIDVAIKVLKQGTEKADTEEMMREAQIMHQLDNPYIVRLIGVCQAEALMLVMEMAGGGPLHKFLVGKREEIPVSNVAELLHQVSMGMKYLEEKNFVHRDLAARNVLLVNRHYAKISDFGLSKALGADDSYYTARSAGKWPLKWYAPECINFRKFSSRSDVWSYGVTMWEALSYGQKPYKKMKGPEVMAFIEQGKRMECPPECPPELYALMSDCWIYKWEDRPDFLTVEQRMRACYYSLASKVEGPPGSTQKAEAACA
Procedure, shortened: as §1

Itk = target: T4, Itk (Homo sapiens, UniProt Q08881); assay: Kinase inhibition assay (33P transfer), Itk; conditions: Table 3; read-out: Itk-1
T4 construct: Kinases are expressed as either kinase domains or full length constructs; made in house
T4 sequence (Q08881 1-620): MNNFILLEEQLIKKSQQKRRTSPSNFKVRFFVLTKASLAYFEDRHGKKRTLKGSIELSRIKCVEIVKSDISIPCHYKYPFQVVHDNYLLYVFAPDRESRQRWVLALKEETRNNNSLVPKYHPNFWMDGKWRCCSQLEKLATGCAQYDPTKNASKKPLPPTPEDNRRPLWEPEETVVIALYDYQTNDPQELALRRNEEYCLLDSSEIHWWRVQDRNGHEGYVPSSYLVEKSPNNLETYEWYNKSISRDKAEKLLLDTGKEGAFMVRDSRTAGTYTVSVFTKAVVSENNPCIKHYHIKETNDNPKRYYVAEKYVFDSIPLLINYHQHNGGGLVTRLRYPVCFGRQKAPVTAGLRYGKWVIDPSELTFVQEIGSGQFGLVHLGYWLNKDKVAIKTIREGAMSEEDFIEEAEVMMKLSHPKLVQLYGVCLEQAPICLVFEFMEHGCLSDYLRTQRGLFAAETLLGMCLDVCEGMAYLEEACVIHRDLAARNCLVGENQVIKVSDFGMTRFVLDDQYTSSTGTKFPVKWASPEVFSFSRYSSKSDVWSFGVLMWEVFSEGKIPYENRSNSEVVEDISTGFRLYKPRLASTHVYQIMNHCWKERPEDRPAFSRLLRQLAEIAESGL
Procedure, shortened: (§2)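 Steps: coat wells with poly(Glu,Tyr) 4:1 or poly(Arg,Ser) 3:1; add purified kinase, [33P]ATP and inhibitor; incubate; wash with 0.5% phosphoric acid; add liquid scintillant; count. IC50 corresponds to half-maximal reduction of bound 33P.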

Lyn = target: T5, Lyn (Homo sapiens, UniProt P07948); assay: Kinase inhibition assay (33P transfer), Lyn; conditions: Table 6, Lyn-1 kinase inhibition class
T5 construct: Kinases are expressed as either kinase domains or full length constructs; made in house
Procedure, shortened: as §2

AKT = target: T6, AKT (Homo sapiens, UniProt Q9Y243); assay: Kinase inhibition assay (33P transfer), AKT; conditions: Table 2, kinase inhibition class; read-out: AKT3-1
T6 construct: Kinases are expressed as either kinase domains or full length constructs; made in house
Procedure, shortened: as §1

ErbB4 = target: T7, ErbB4 (Homo sapiens, UniProt Q15303); assay: Kinase inhibition assay (33P transfer), ErbB4; conditions: read-out: ErbB4-1
T7 construct: Kinases are expressed as either kinase domains or full length constructs; made in house

Fyn = target: T8, Fyn (Homo sapiens, UniProt P06241); assay: Kinase inhibition assay (33P transfer), Fyn; conditions: read-out: Fyn-1
T8 construct: Kinases are expressed as either kinase domains or full length constructs; made in house
Procedure, shortened: as §2

FGFR1 = target: T9, FGFR1 (Homo sapiens, UniProt P11362); assay: Kinase inhibition assay (33P transfer), FGFR1; conditions: read-out: FGFR1-1
T9 construct: Kinases are expressed as either kinase domains or full length constructs; made in house

Kdr = target: T10, Kdr (Homo sapiens, UniProt P35968); assay: Kinase inhibition assay (33P transfer), Kdr; conditions: Table 3; read-out: KDR-1
T10 construct: Kinases are expressed as either kinase domains or full length constructs; made in house
Procedure, shortened: as §1

Tek = target: T11, Tek (Homo sapiens, UniProt Q02763); assay: Kinase inhibition assay (33P transfer), Tek; conditions: read-out: Tek-1
T11 construct: Kinases are expressed as either kinase domains or full length constructs; made in house
Procedure, shortened: as §2

Hck-1 = target: T12, Hck-1 (Homo sapiens, UniProt P08631); assay: Kinase inhibition assay (33P transfer), Hck; conditions: Table 6, Hck-1 kinase inhibition class
T12 construct: Kinases are expressed as either kinase domains or full length constructs; made in house

c-Met = target: T13, c-Met (Homo sapiens, UniProt P08581); assay: Kinase inhibition assay (33P transfer), c-Met; conditions: Table 2, kinase inhibition class; read-out: Met-1
T13 construct: Kinases are expressed as either kinase domains or full length constructs; made in house
Procedure, shortened: as §2

EGFR = target: T14, EGFR (Homo sapiens, UniProt P00533); assay: Kinase inhibition assay (33P transfer), EGFR; conditions: Table 2, kinase inhibition class; read-out: EGFR-1
T14 construct: Kinases are expressed as either kinase domains or full length constructs; made in house
Procedure, shortened: as §2

T11 sequence (Q02763 23-1124, species assumed): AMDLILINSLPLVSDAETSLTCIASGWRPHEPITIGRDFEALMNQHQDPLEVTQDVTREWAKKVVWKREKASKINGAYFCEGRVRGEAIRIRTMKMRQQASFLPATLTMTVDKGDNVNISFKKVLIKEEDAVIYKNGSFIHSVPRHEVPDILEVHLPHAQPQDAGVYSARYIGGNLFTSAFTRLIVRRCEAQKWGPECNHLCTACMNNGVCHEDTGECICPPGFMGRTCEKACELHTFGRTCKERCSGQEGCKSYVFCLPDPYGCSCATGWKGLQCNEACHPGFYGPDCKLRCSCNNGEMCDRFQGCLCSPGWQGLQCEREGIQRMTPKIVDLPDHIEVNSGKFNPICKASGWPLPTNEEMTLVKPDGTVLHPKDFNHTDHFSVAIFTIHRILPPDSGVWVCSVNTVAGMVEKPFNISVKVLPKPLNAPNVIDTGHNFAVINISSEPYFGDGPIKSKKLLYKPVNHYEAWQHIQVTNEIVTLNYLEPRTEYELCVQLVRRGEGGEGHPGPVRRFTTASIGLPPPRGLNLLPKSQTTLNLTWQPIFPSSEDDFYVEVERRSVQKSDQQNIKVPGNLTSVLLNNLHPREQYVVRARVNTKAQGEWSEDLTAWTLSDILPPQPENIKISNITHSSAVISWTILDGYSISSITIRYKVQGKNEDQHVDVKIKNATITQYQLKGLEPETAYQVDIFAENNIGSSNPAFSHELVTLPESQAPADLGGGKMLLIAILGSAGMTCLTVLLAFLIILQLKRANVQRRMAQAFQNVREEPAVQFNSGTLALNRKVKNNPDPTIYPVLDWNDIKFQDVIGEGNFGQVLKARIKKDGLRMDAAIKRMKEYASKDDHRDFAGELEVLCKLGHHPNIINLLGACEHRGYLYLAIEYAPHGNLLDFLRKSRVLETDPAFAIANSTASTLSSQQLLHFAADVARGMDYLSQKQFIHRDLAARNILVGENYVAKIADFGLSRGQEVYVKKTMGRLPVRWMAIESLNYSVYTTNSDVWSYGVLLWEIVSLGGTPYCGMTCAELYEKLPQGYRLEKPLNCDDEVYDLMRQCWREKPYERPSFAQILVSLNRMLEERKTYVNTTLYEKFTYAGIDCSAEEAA
T14 sequence (P00533 25-1210, species assumed): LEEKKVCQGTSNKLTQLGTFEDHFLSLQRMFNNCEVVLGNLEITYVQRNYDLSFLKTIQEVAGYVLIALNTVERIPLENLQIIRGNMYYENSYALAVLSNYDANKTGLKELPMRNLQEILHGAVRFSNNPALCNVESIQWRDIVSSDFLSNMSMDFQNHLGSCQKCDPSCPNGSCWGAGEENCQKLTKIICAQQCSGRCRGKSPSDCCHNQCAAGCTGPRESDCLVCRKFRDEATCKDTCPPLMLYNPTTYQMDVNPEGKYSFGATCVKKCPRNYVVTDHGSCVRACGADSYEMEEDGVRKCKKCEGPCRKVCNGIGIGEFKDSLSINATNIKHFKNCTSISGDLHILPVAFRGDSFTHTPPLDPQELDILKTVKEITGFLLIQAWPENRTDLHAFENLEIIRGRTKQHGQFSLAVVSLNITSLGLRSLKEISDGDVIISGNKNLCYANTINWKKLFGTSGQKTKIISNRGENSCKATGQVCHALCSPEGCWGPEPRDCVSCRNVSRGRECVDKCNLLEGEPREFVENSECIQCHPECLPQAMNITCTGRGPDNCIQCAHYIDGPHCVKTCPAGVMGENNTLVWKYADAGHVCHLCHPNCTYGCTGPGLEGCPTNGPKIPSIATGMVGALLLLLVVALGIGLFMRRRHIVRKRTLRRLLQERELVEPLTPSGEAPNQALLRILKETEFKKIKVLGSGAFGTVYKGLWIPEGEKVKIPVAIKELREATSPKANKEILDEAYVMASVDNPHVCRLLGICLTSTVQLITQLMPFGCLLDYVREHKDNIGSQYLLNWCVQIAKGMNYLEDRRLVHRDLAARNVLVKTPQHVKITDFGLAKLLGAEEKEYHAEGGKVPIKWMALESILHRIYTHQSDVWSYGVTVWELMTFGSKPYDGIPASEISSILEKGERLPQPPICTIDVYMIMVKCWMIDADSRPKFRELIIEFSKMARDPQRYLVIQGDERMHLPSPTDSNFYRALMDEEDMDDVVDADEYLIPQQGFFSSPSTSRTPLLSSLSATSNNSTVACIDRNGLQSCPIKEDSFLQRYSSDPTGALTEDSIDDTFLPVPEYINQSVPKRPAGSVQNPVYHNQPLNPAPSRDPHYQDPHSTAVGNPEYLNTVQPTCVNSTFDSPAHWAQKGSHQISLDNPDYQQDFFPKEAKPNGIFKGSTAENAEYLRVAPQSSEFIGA
T8 sequence (P06241 whole entry, species assumed, the tested form may be a part): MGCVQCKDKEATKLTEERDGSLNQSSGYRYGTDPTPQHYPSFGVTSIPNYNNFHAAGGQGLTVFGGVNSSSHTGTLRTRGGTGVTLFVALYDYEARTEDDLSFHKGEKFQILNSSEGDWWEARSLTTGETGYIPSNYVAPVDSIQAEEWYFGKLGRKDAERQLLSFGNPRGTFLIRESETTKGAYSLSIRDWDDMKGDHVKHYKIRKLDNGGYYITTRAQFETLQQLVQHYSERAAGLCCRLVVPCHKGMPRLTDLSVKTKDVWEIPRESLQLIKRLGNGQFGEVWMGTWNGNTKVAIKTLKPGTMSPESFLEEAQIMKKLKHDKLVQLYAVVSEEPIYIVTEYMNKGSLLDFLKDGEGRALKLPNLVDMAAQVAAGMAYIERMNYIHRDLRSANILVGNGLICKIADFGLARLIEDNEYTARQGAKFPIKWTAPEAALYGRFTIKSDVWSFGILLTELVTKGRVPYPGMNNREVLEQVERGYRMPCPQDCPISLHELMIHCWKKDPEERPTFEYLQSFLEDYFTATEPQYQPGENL
T13 sequence (P08581 25-1390): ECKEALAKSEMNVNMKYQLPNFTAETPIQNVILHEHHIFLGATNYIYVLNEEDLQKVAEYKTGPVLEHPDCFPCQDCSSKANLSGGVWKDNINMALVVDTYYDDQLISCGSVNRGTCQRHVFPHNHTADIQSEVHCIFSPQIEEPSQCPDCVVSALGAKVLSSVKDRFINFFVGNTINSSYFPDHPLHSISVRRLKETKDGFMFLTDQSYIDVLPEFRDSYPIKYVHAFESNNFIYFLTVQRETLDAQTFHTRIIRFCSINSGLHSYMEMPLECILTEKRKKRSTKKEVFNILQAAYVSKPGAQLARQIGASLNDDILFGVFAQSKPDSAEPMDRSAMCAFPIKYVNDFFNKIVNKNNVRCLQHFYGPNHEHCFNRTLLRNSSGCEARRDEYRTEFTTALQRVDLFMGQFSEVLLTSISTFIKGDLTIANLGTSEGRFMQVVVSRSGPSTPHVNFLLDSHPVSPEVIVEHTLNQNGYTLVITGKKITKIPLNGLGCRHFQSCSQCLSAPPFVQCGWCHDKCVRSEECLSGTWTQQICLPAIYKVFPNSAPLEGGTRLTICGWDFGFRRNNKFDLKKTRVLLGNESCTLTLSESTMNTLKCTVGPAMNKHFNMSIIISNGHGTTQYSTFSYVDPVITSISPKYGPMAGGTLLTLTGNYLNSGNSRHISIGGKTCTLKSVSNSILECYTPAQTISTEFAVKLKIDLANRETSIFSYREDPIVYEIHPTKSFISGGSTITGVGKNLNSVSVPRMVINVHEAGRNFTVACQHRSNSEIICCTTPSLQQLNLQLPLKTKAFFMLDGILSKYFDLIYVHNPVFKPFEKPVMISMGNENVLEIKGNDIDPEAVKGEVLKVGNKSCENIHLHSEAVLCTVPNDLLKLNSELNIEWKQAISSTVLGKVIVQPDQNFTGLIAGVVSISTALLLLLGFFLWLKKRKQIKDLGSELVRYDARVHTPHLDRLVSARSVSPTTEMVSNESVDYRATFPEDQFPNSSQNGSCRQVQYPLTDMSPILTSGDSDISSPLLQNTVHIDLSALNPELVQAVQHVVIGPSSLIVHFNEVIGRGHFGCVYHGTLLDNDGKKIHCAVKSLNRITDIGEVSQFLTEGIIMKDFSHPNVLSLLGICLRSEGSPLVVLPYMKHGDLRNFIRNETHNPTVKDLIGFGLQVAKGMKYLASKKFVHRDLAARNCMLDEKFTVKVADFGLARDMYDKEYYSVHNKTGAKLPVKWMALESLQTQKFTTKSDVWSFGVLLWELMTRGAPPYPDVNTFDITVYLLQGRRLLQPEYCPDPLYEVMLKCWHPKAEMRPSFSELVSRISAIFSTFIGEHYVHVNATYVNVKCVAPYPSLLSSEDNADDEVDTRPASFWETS
T9 sequence (P11362 22-822, species assumed): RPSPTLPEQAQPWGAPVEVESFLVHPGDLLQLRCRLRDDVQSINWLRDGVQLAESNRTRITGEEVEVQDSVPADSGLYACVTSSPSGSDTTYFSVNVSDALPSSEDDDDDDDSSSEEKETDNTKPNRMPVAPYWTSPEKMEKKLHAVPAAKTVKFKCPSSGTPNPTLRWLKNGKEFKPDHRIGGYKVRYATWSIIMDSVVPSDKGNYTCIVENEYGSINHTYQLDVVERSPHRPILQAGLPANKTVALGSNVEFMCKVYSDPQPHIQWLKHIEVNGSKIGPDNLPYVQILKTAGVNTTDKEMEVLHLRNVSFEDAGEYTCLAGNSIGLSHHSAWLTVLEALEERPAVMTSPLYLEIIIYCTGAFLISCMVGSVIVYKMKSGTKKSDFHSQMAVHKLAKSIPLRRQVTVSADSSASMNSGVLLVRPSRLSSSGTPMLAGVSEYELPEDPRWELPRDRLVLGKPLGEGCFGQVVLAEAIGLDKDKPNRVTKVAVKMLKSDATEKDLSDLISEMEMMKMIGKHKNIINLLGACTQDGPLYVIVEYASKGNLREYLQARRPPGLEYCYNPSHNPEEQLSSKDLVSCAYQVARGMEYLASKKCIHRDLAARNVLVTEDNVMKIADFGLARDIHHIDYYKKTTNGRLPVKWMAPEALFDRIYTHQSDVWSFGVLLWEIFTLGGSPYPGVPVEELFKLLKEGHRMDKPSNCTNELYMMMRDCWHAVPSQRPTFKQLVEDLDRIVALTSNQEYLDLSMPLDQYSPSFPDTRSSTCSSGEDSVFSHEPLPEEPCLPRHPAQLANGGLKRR

SMILES | IC50 (IGFR-1) [µM] | IC50 (Lck) [µM] | IC50 (Zap-70) [µM] | IC50 (Itk) [µM] | IC50 (Lyn) [µM] | IC50 (AKT) [µM] | IC50 (ErbB4) [µM] | IC50 (Fyn) [µM] | IC50 (FGFR1) [µM] | IC50 (Kdr) [µM] | IC50 (Tek) [µM] | IC50 (Hck-1) [µM] | IC50 (c-Met) [µM] | IC50 (EGFR) [µM]
CCOc1ccc(Nc2ncnc(Nc3ccc(OCc4ccccc4)cc3)n2)cc1OCC [Compound 170] | > 9.84 | > 9.84 | 5.25 to 7.65 | > 9.84 | > 9.84 | 0.874 to 5.25 | 7.65 to 9.84 | > 9.84 | > 9.84 | 0.874 to 5.25 | 5.25 to 7.65 | > 9.84 | 5.25 to 7.65 | 0.874 to 5.25
COc1ccc(Nc2ncnc(N(CC(=O)O)c3ccc4c(c3)OCO4)n2)cc1OC [Compound 320] | > 10.6 | 5.64 to 8.23 | 8.23 to 10.6 | > 10.6 | > 10.6 | > 10.6 | > 10.6 | > 10.6 | > 10.6 | 5.64 to 8.23 | > 10.6 | > 10.6 | 5.64 to 8.23 | 0.94 to 5.64
Cc1cccc(Nc2ncnc(Nc3ccc(O)cc3)n2)c1 [Compound 107] | 1.36 to 8.18 | 1.36 to 8.18 | > 15.3 | 1.36 to 8.18 | < 1.36 | 1.36 to 8.18 | 8.18 to 11.9 | < 1.36 | 1.36 to 8.18 | 1.36 to 8.18 | > 15.3 | 11.9 to 15.3 | 8.18 to 11.9 | < 1.36
NC(=O)c1cccc(Nc2ncnc(Nc3cc(-c4ccco4)n[nH]3)n2)c1 [Compound 342] | 1.1 to 6.62 | 1.1 to 6.62 | > 12.4 | 1.1 to 6.62 | 1.1 to 6.62 | > 12.4 | 1.1 to 6.62 | 1.1 to 6.62 | < 1.1 | < 1.1 | > 12.4 | 6.62 to 9.66 | 1.1 to 6.62 | < 1.1
C#Cc1cccc(Nc2ncnc(Nc3ccc(OC)c(OC)c3)n2)c1 [Compound 116] | 1.15 to 6.91 | 10.1 to 13 | > 13 | > 13 | > 13 | > 13 | > 13 | > 13 | > 13 | 6.91 to 10.1 | > 13 | > 13 | > 13 | < 1.15
COc1cc(Nc2ncnc(N(c3ccccc3)c3nc4ccccc4[nH]3)n2)cc(OC)c1OC [Compound 335] | > 9.58 | 0.852 to 5.11 | > 9.58 | > 9.58 | 0.852 to 5.11 | > 9.58 | > 9.58 | > 9.58 | 7.45 to 9.58 | < 0.852 | > 9.58 | > 9.58 | > 9.58 | < 0.852
COc1ccc(Nc2ncnc(N(C/C=C/c3ccccc3)c3ccc(Cl)cc3)n2)cc1OC [Compound 974] | > 9.49 | 5.06 to 7.38 | > 9.49 | > 9.49 | 5.06 to 7.38 | > 9.49 | > 9.49 | > 9.49 | 5.06 to 7.38 | 0.844 to 5.06 | > 9.49 | > 9.49 | > 9.49 | < 0.844
COc1ccc(Nc2ncnc(Nc3cccc(C)c3)n2)cc1OC [Compound 108] | 7.11 to 10.4 | 10.4 to 13.3 | > 13.3 | > 13.3 | < 1.19 | > 13.3 | 10.4 to 13.3 | 1.19 to 7.11 | 1.19 to 7.11 | 7.11 to 10.4 | > 13.3 | > 13.3 | > 13.3 | < 1.19

Now from value to molecule:

IC50 (IGFR-1) [µM] | IC50 (Lck) [µM] | IC50 (Zap-70) [µM] | IC50 (Itk) [µM] | IC50 (Lyn) [µM] | IC50 (AKT) [µM] | IC50 (ErbB4) [µM] | IC50 (Fyn) [µM] | IC50 (FGFR1) [µM] | IC50 (Kdr) [µM] | IC50 (Tek) [µM] | IC50 (Hck-1) [µM] | IC50 (c-Met) [µM] | IC50 (EGFR) [µM] | SMILES
1.09 to 6.53 | 1.09 to 6.53 | > 12.2 | > 12.2 | < 1.09 | > 12.2 | 1.09 to 6.53 | < 1.09 | 6.53 to 9.53 | < 1.09 | > 12.2 | 6.53 to 9.53 | 9.53 to 12.2 | < 1.09 | COc1cc(Nc2ncnc(Nc3ccc(C)cc3)n2)cc(OC)c1OC [Compound 930]
< 1.04 | 1.04 to 6.23 | > 11.7 | > 11.7 | < 1.04 | > 11.7 | 6.23 to 9.08 | 1.04 to 6.23 | > 11.7 | < 1.04 | > 11.7 | > 11.7 | 6.23 to 9.08 | < 1.04 | COc1cc(Nc2ncnc(Nc3ccc(C)cc3F)n2)cc(OC)c1OC [Compound 937]
< 1.03 | 1.03 to 6.19 | 9.02 to 11.6 | 6.19 to 9.02 | < 1.03 | > 11.6 | 6.19 to 9.02 | < 1.03 | 1.03 to 6.19 | < 1.03 | 6.19 to 9.02 | > 11.6 | 1.03 to 6.19 | < 1.03 | COc1cc(Nc2ncnc(Nc3cccc(Cl)c3)n2)cc(OC)c1OC [Compound 135]
< 0.971 | 0.971 to 5.83 | 8.5 to 10.9 | > 10.9 | 5.83 to 8.5 | > 10.9 | > 10.9 | > 10.9 | 5.83 to 8.5 | < 0.971 | > 10.9 | > 10.9 | 5.83 to 8.5 | 8.5 to 10.9 | COc1cc(Nc2ncnc(-n3ccc4ccc(Cl)cc43)n2)cc(OC)c1OC [Compound 237]
1.1 to 6.62 | 1.1 to 6.62 | > 12.4 | 9.66 to 12.4 | 6.62 to 9.66 | 1.1 to 6.62 | > 12.4 | 6.62 to 9.66 | 6.62 to 9.66 | 1.1 to 6.62 | > 12.4 | > 12.4 | > 12.4 | < 1.1 | COc1ccc(Nc2ncnc(Nc3ccc4[nH]ccc4c3)n2)cc1OC [Compound 115]
< 0.977 | 0.977 to 5.86 | > 11 | 0.977 to 5.86 | < 0.977 | 8.55 to 11 | 0.977 to 5.86 | < 0.977 | < 0.977 | < 0.977 | 5.86 to 8.55 | 0.977 to 5.86 | < 0.977 | < 0.977 | COc1cc(Nc2ncnc(Nc3cc(-c4ccco4)n[nH]3)n2)cc(OC)c1OC [Compound 308]
